Results taken from US12178838B2, “Synthetic neuromodulatory peptides” (Lactocore, Inc., priority 2019, dated 2024).

Tested on: Sprague Dawley rats
Assay: Predator odor stress exposure and conditioned place aversion (PTSD model)
Assay type: in vivo
Conditions: DOX 1 mg/kg IP
Protocol: Doxazosin (DOX, Sigma-Aldrich, St. Louis, MO, USA, 1 mg/kg, IP) was prepared in sterile saline. Previously it has been shown that DOX is effective in the treatment of some PTSD symptoms in veterans (Rodgman et al. (2016). Doxazosin XL reduces symptoms of posttraumatic stress disorder in veterans with PTSD: a pilot clinical trial. J. Clin. Psychiat., 77(5), e561-565). The two doses of FQSE (SEQ ID NO:10) (0.05 and 0.5 mg/kg, CS, Menlo Park, CA) were prepared fresh for each test day in sterile saline and administered intra-nasally 30 minutes prior to testing. Each dose was administered in a randomized order across groups. […] The same procedure with isoflurane was used to administer doxazosin however the drug was administered IP. Individuals performing behavioral tests were blind to drug treatment. […] Potential differences between groups that were not odor exposed and odor exposed groups were analyzed using One-Way ANOVA with drug dose as the primary factor. […]

## COc1cc2nc(N3CCN(C(=O)C4COc5ccccc5O4)CC3)nc(N)c2cc1OC (centres unmarked) [Doxazosin]
FQSE 0.05 and 0.5 mg/kg i.n.
  behavior of groups not exposed to predator odor (time in randomly paired chambers): normal behavior
FQSE 0.5 mg/kg intra-nasally, vs VEH
  predator odor-induced place aversion: there was not a significant difference from VEH
